Measured values as given in patent US8378117B2 (priority 2005, dated 2013).
Read-outs that look alike come from different tables or passages of the source.

Key:
CB1 receptor [1] = molecular target: T1, CB1 receptor (Homo sapiens, UniProt P21554); test: Binding assay for CB1 agonists or inverse agonists (SK-N-MC membranes, [3H]-CP-55,940); conditions: for inhibition at 1 µM: read-out: CB1 receptor binding percent inhibition, test concentration 1 μM (footnote 1); for inhibition at 0.2 µM: read-out: CB1 receptor binding percent inhibition, test concentration 0.2 μM (footnote 2)
T1 construct: expressed in transfected cells
T1 sequence (P21554 whole entry): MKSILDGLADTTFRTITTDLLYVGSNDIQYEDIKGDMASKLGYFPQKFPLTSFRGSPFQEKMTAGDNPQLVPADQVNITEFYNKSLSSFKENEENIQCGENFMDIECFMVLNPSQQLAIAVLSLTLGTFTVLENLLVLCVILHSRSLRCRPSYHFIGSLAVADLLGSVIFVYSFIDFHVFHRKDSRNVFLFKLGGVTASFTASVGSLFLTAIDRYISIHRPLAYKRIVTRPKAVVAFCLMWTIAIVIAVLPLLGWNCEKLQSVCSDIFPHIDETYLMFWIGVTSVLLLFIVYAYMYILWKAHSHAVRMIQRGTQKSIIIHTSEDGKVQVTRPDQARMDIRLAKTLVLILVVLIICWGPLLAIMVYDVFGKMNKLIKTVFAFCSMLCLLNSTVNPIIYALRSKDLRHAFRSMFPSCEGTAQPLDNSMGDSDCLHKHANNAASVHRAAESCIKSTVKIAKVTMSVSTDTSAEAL
How it was run: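 Membranes from SK-N-MC cells stably expressing human CB1 incubated with compound and [3H]-CP-55,940 ([…]) for 90 min at 30° C in Tris-HCl pH 7.5, MgCl2, EDTA, fatty-acid-free BSA. Non-specific binding defined with 10 uM WIN 55,212; filtration, scintillation count; IC50 by linear regression.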

CB2 receptor = molecular target: T2, CB2 receptor (Homo sapiens, UniProt P34972); test: Binding assay for CB2 agonists or inverse agonists (SK-N-MC membranes, [3H]-CP-55,940); conditions: for CB2 receptor binding percent inhibition: test concentration not stated
T2 construct: expressed in transfected cells
T2 sequence (P34972 whole entry): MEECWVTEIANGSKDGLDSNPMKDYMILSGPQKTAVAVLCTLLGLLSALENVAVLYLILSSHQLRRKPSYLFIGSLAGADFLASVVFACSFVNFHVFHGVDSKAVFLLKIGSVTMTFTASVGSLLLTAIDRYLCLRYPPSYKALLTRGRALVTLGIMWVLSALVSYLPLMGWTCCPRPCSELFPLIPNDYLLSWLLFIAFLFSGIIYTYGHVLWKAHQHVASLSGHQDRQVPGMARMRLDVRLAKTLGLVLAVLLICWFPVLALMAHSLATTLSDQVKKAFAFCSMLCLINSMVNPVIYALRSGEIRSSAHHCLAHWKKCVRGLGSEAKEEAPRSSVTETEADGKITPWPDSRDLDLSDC
How it was run: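 Membranes from SK-N-MC cells stably expressing human CB2 were incubated with radioligand and test compounds for 90 min at 30 °C in Tris-HCl buffer, pH 7.5, with MgCl2, EDTA and fatty-acid-free BSA. Filter-bound radioactivity was counted; IC50 was derived by linear regression of percent inhibition.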

CB1 receptor [2] = molecular target: T1, CB1 receptor; test: cell-based; conditions: SK-N-MC cells
How it was run: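 SK-N-MC cells stably co-expressing human CB1 and a CRE-β-galactosidase reporter; forskolin-induced β-gal activity measured after compound treatment, as % of vehicle-treated cells (100%). EC50 by linear regression from concentration series; otherwise % change at a single concentration.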

[3] = calculated by linear regression from percent inhibition at various test concentrations, read-out: Cannabinoid CB1 Receptor Binding IC50
[4] = forskolin induced β-galactosidase activity, read-out: CB1 Receptor Functional Inverse Agonist EC50
[5] = Cannabinoid CB1 Receptor Binding IC50, calculated by linear regression from percent inhibition at various test concentrations
[6] = CB1 Receptor Functional Inverse Agonist EC50, forskolin induced β-galactosidase activity
[7] = read-out: CB2 receptor binding percent inhibition, test concentration 0.2 μM (footnote 2)
[8] = forskolin induced β-galactosidase activity, read-out: CB1 Receptor Functional Agonist EC50

## C[C@H](NC(=O)c1nn(Cc2ccccc2)c2c1CCCCC2c1ccccc1)c1ccccc1 (stereo partly drawn) [Cpd 48, 1-benzyl-8-phenyl-1,4,5,6,7,8-hexahydro-cycloheptapyrazole-3-carboxylic acid [(1S)-1-phenyl-ethyl]-amide]
CB1 receptor [1]; [3]
  IC50: 300 nM
CB1 receptor [1]
  inhibition at 1 µM: 63%
CB2 receptor
  CB2 receptor binding percent inhibition: 42%
CB1 receptor [2]; [4]
  EC50: 300 nM

## C[C@@H](NC(=O)c1nn(-c2ccc(Cl)cc2Cl)c2c1CCCC/C2=C\c1ccc(Cl)cc1)C1CCCCC1 [Cpd 132, (8E)-8-(4-chloro-benzylidene)-1-(2,4-dichloro-phenyl)-1,4,5,6,7,8-hexahydro-cycloheptapyrazole-3-carboxylic acid [(1R)-1-cyclohexyl-ethyl]-amide]
CB1 receptor [1]; [5]
  IC50: 5 nM
CB1 receptor [1]; read-out: CB1 receptor binding percent inhibition, test concentration 0.015 μM (footnote 7)
  inhibition at 0.015 µM: 64%
CB1 receptor [1]; read-out: CB1 receptor binding percent inhibition, test concentration 0.25 μM (footnote 8)
  inhibition at 0.25 µM: 94%
CB2 receptor; read-out: CB2 receptor binding percent inhibition, test concentration 0.25 μM (footnote 8)
  inhibition at 0.25 µM: 42%
CB1 receptor [2]; [6]
  EC50: 10 nM

## COc1ccc(/C=C2\CCCCc3c(C(=O)N[C@H](C)c4ccccn4)nn(-c4ccc(Cl)cc4Cl)c32)cc1 [Cpd 227, (8E)-1-(2,4-dichloro-phenyl)-8-(4-methoxy-benzylidene)-1,4,5,6,7,8-hexahydro-cycloheptapyrazole-3-carboxylic acid [(1R)-1-pyridin-2-yl-ethyl)-amide]
CB1 receptor [1]; [5]
  IC50: 9 nM
CB1 receptor [1]
  inhibition at 0.2 µM: 90%
CB2 receptor; [7]
  inhibition at 0.2 µM: 19%
CB1 receptor [2]; [6]
  EC50: 2 nM

## C[C@H](NC(=O)c1nn(C2CCCCC2)c2c1CCCCC2Cc1cccc(F)c1)c1ccccc1 (stereo partly drawn) [Cpd 45, 1-cyclohexyl-8-(3-fluoro-benzyl)-1,4,5,6,7,8-hexahydro-cycloheptapyrazole-3-carboxylic acid [(1S)-1-phenyl-ethyl]-amide]
CB1 receptor [1]; [3]
  IC50: 700 nM
CB1 receptor [1]
  inhibition at 1 µM: 54%
CB2 receptor
  CB2 receptor binding percent inhibition: 42%
CB1 receptor [2]; [4]
  EC50: 1100 nM

## COc1ccc(/C=C2\CCCCc3c(C(=O)NC(C)c4ccccn4)nn(-c4ccc(Cl)cc4Cl)c32)cc1 (stereo not shown) [Cpd 222, (8E)-1-(2,4-dichloro-phenyl)-8-(4-methoxy-benzylidene)-1,4,5,6,7,8-hexahydro-cycloheptapyrazole-3-carboxylic acid (1-pyridin-2-yl-ethyl)-amide]
CB1 receptor [1]; [5]
  IC50: 30 nM
CB1 receptor [1]
  inhibition at 0.2 µM: 48%
CB2 receptor; [7]
  inhibition at 0.2 µM: 41%
CB1 receptor [2]; [6]
  EC50: 30 nM

## C[C@H](NS(=O)(=O)/C=C/c1nn(-c2ccc(F)cc2F)c2c1CCCCC2Cc1ccc(F)cc1)c1ccccc1 (stereo partly drawn) [Cpd 107, (2E)-2-[1-(2,4-difluoro-phenyl)-8-(4-fluoro-benzyl)-1,4,5,6,7,8-hexahydro-cycloheptapyrazol-3-yl]-ethenesulfonic acid [(1S)-1-phenyl-ethyl]-amide]
CB1 receptor [1]; [3]
  IC50: 300 nM
CB1 receptor [1]; read-out: CB1 receptor binding percent inhibition, test concentration 0.5 μM (footnote 10)
  inhibition at 0.5 µM: 59%
CB1 receptor [1]
  inhibition at 1 µM: 72%
CB2 receptor
  CB2 receptor binding percent inhibition: 64%
CB1 receptor [2]; [8]
  EC50: 19800 nM

## O=C(Nc1ccccn1)c1nn(-c2ccc(Cl)cc2Cl)c2c1CCCC/C2=C\c1ccc(Cl)cc1 [Cpd 152, (8E)-8-(4-chloro-benzylidene)-1-(2,4-dichloro-phenyl)-1,4,5,6,7,8-hexahydro-cycloheptapyrazole-3-carboxylic acid pyridin-2-ylamide]
CB1 receptor [1]; read-out: CB1 receptor binding percent inhibition, test concentration 0.0125 μM (footnote 13)
  inhibition at 0.0125 µM: 28%
CB1 receptor [1]
  inhibition at 0.2 µM: 66%
CB1 receptor [1]; test concentration not stated
  CB1 receptor binding percent inhibition: 47%
CB2 receptor; test concentration 0.2 μM (footnote 2), read-out: CB2 receptor binding percent inhibition
  inhibition at 0.2 µM: 21%
CB1 receptor [2]; [4]
  EC50: 200 nM

## C[C@H](NC(=O)c1nn(-c2ccc(Cl)cc2Cl)c2c1CCCC/C2=C\c1ccc(F)cc1)c1ccccc1 [Cpd 149, (8E)-1-(2,4-dichloro-phenyl)-8-(4-fluoro-benzylidene)-1,4,5,6,7,8-hexahydro-cycloheptapyrazole-3-carboxylic acid [(1S)-1-phenyl-ethyl]-amide]
CB1 receptor [1]; [5]
  IC50: 100 nM
CB1 receptor [1]
  inhibition at 0.2 µM: 66%
CB2 receptor; [7]
  inhibition at 0.2 µM: 4%
CB1 receptor [2]; [6]
  EC50: 60 nM

## O=C(N[C@@H]1CCc2ccccc21)c1nn(-c2ccc(Cl)cc2Cl)c2c1CCCC/C2=C\c1ccc(F)cc1 [Cpd 207, (8E)-1-(2,4-dichloro-phenyl)-8-(4-fluoro-benzylidene)-1,4,5,6,7,8-hexahydro-cycloheptapyrazole-3-carboxylic acid (1R)-indan-1-ylamide]
CB1 receptor [1]; [5]
  IC50: 20 nM
CB1 receptor [1]
  inhibition at 0.2 µM: 90%
CB2 receptor; [7]
  inhibition at 0.2 µM: 1%
CB1 receptor [2]; [6]
  EC50: 7 nM

## O=C(NC1CCC1)c1nn(-c2ccc(Cl)cc2Cl)c2c1CCCCC2Cc1cccc(F)c1 (stereo not shown) [Cpd 41, 1-(2,4-dichloro-phenyl)-8-(3-fluoro-benzyl)-1,4,5,6,7,8-hexahydro-cycloheptapyrazole-3-carboxylic acid cyclobutylamide]
CB1 receptor [1]; [5]
  IC50: 500 nM
CB1 receptor [1]
  inhibition at 1 µM: 68%
CB2 receptor
  CB2 receptor binding percent inhibition: 46%
CB1 receptor [2]; [6]
  EC50: 100 nM

## C[C@@H](NC(=O)c1nn(-c2ccc(Cl)cc2Cl)c2c1CCCC/C2=C\c1ccc(F)cc1)C1CCCCC1 [Cpd 147, (8E)-1-(2,4-dichloro-phenyl)-8-(4-fluoro-benzylidene)-1,4,5,6,7,8-hexahydro-cycloheptapyrazole-3-carboxylic acid [(1R)-1-cyclohexyl-ethyl]-amide]
CB1 receptor [1]; [5]
  IC50: 7 nM
CB1 receptor [1]
  inhibition at 0.2 µM: 94%
CB2 receptor; [7]
  inhibition at 0.2 µM: 23%
CB1 receptor [2]; [6]
  EC50: 30 nM

## COc1ccc(/C=C2\CCCCc3c(C(=O)N[C@@H](C)c4ccccc4)nn(-c4ccc(Cl)cc4Cl)c32)cc1 [Cpd 213, (8E)-1-(2,4-dichloro-phenyl)-8-(4-methoxy-benzylidene)-1,4,5,6,7,8-hexahydro-cycloheptapyrazole-3-carboxylic acid [(1S)-1-phenyl-ethyl]-amide]
CB1 receptor [1]; [5]
  IC50: 60 nM
CB1 receptor [1]
  inhibition at 0.2 µM: 71%
CB2 receptor; [7]
  inhibition at 0.2 µM: 19%
CB1 receptor [2]; [6]
  EC50: 10 nM

## CC12CCC(C1)C(C)(C)[C@H]2NC(=O)c1nn(C2CCCCC2)c2c1CCCCC2Cc1ccc(F)cc1 (stereo partly drawn) [Cpd 58, 1-cyclohexyl-8-(4-fluoro-benzyl)-1,4,5,6,7,8-hexahydro-cycloheptapyrazole-3-carboxylic acid [(2S)-1,3,3-trimethyl-bicyclo[2.2.1]hept-2-yl]-amide]
CB1 receptor [1]; [3]
  IC50: 200 nM
CB1 receptor [1]
  inhibition at 1 µM: 75%
CB2 receptor; test concentration 0.015 μM (footnote 7), read-out: CB2 receptor binding percent inhibition
  inhibition at 0.015 µM: 65%
CB2 receptor; test concentration 1 μM (footnote 1), read-out: CB2 receptor binding percent inhibition
  inhibition at 1 µM: 98%
CB2 receptor
  CB2 receptor binding percent inhibition: 74%
CB1 receptor [2]; [8]
  EC50: 1400 nM

## O=C(NCc1ccncc1)c1nn(-c2ccc(Cl)cc2Cl)c2c1CCCC/C2=C\c1ccc(Cl)cc1 [Cpd 156, (8E)-8-(4-chloro-benzylidene)-1-(2,4-dichloro-phenyl)-1,4,5,6,7,8-hexahydro-cycloheptapyrazole-3-carboxylic acid (pyridin-4-ylmethyl)-amide]
CB1 receptor [1]
  inhibition at 0.2 µM: 50%
CB2 receptor; [7]
  inhibition at 0.2 µM: 36%
CB1 receptor [2]; [6]
  EC50: 90 nM

## CC(C)(NC(=O)c1nn(-c2ccc(Cl)cc2Cl)c2c1CCCC/C2=C\c1ccc(F)cc1)c1ccccc1 [Cpd 205, (8E)-1-(2,4-dichloro-phenyl)-8-(4-fluoro-benzylidene)-1,4,5,6,7,8-hexahydro-cycloheptapyrazole-3-carboxylic acid (1-methyl-1-phenyl-ethyl)-amide]
CB1 receptor [1]; [5]
  IC50: 20 nM
CB1 receptor [1]
  inhibition at 0.2 µM: 93%
CB2 receptor; [7]
  inhibition at 0.2 µM: 27%
CB1 receptor [2]; [6]
  EC50: 9 nM

## O=C(N[C@@H]1c2ccccc2C[C@@H]1O)c1nn(C2CCCCC2)c2c1CCCCC2Cc1cccc(F)c1 (single isomer, unassigned) [Cpd 114, (8R*)-1-cyclohexyl-8-(3-fluoro-benzyl)-1,4,5,6,7,8-hexahydro-cycloheptapyrazole-3-carboxylic acid [(1R,2S)-2-hydroxy-indan-1-yl]-amide]
CB1 receptor [1]; test concentration 1 μM (footnote 1), 1 µM
  CB1 receptor binding percent inhibition: ^(1)17%
CB2 receptor
  CB2 receptor binding percent inhibition: 47%
CB1 receptor [2]; [6]
  EC50: 40 nM

## C[C@@H](NC(=O)c1nn(-c2ccccc2Cl)c2c1CCCC/C2=C\c1ccc(Cl)cc1)C1CCCCC1 [Cpd 189, (8E)-8-(4-chloro-benzylidene)-1-(2-chloro-phenyl)-1,4,5,6,7,8-hexahydro-cycloheptapyrazole-3-carboxylic acid [(1R)-1-cyclohexyl-ethyl]-amide]
CB1 receptor [1]; [5]
  IC50: 50 nM
CB1 receptor [1]
  inhibition at 0.2 µM: 78%
CB2 receptor; [7]
  inhibition at 0.2 µM: 17%
CB1 receptor [2]; [6]
  EC50: 10 nM

## COc1ccc(/C=C2\CCCCc3c(C(=O)N[C@@H]4CCc5ccccc54)nn(-c4ccc(Cl)cc4Cl)c32)cc1 [Cpd 216, (8E)-1-(2,4-dichloro-phenyl)-8-(4-methoxy-benzylidene)-1,4,5,6,7,8-hexahydro-cycloheptapyrazole-3-carboxylic acid (1R)-indan-1-ylamide]
CB1 receptor [1]; [5]
  IC50: 9 nM
CB1 receptor [1]
  inhibition at 0.2 µM: 91%
CB2 receptor; [7]
  inhibition at 0.2 µM: 33%
CB1 receptor [2]; [6]
  EC50: 50 nM

## C[C@H](NS(=O)(=O)/C=C/c1nn(-c2ccc(F)cc2F)c2c1CCCCC2Cc1cccc(F)c1)c1ccccc1 (stereo partly drawn) [Cpd 93, (2E)-2-[1-(2,4-difluoro-phenyl)-8-(3-fluoro-benzyl)-1,4,5,6,7,8-hexahydro-cycloheptapyrazol-3-yl]-ethenesulfonic acid [(1S)-1-phenyl-ethyl]-amide]
CB1 receptor [1]; [5]
  IC50: 400 nM
CB1 receptor [1]
  inhibition at 1 µM: 70%
CB2 receptor
  CB2 receptor binding percent inhibition: 58%
CB1 receptor [2]; [6]
  EC50: 50 nM
